In ChEMBL document CHEMBL4665657, “2-Phenyl-8-(1-phenylallyl)-chromenone compounds have a pan-PPAR modulator pharmacophore” (Bioorg Med Chem, 2019):
Activity calls are given as the source filed them. No cut-off for these calls is given here.

Assays:
[1] = system: BMMSC; assay: Induction of adipogenesis in human BMMSC cells assessed as lipid droplet formation at 10 uM incubated for 5 days by oil red O staining based inverted microscopy analysis; type: functional, cell-based; details: time 5.0 day
[2] = system: BMMSC; assay: Induction of adipogenesis in human BMMSC cells assessed as increase in adiponectin secretion incubated for 5 days by ELISA; type: functional, cell-based; details: time 5.0 day
[3] = system: BMMSC; assay: Induction of adipogenesis in human BMMSC cells assessed as increase in adiponectin secretion at 10 uM incubated for 5 days by ELISA; type: functional, cell-based; details: time 5.0 day
[4] = molecular target: T1, Peroxisome proliferator-activated receptor gamma (Homo sapiens, UniProt P37231); assay: Binding affinity to PPARgamma (unknown origin) by TR-FRET assay
T1 sequence (P37231 whole entry): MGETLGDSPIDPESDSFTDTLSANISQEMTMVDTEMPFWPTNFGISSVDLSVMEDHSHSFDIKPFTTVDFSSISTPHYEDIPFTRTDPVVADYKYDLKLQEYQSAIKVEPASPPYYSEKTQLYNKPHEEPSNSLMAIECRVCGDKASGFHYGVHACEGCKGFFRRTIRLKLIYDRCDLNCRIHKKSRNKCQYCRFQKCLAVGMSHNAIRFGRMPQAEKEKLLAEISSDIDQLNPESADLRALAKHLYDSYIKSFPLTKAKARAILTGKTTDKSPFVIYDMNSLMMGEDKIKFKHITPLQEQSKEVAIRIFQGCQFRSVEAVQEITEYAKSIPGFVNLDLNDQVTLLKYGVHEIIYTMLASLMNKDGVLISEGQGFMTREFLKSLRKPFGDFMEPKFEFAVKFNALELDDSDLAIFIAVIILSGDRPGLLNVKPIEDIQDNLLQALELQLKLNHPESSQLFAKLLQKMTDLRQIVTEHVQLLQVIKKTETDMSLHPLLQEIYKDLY

[5] = molecular target: T2, Peroxisome proliferator-activated receptor delta (Homo sapiens, UniProt Q03181); assay: Binding affinity to PPARdelta (unknown origin) by TR-FRET assay
T2 sequence (Q03181 whole entry): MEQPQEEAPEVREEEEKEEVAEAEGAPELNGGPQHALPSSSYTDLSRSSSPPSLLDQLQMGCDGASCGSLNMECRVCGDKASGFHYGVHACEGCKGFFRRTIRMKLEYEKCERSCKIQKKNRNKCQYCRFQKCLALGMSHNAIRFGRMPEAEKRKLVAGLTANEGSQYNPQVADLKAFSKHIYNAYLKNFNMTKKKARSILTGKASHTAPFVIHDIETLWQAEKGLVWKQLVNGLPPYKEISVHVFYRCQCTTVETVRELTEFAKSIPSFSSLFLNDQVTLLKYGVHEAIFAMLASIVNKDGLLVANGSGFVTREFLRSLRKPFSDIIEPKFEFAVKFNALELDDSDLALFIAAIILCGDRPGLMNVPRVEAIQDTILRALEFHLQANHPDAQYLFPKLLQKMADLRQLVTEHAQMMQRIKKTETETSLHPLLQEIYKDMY

[6] = molecular target: T3, Peroxisome proliferator-activated receptor alpha (Homo sapiens, UniProt Q07869); assay: Binding affinity to PPARalpha (unknown origin) by TR-FRET assay
T3 sequence (Q07869 whole entry): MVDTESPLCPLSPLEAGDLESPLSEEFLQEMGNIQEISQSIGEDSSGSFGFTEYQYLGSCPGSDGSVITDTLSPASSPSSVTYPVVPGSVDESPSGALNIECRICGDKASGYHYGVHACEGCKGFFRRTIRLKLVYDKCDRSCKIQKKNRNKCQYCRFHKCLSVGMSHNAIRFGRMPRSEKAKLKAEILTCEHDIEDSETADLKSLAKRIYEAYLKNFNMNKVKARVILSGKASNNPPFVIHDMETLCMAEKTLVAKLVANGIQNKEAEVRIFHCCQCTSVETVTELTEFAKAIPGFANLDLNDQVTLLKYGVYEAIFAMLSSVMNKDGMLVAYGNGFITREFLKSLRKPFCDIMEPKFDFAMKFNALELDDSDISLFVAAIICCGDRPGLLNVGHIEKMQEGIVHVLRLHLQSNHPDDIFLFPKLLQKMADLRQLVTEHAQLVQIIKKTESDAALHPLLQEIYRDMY

[7] = system: PC-3; assay: Cytotoxicity against human PC-3 cells assessed as reduction in cell viability incubated for 72 hrs by WST-8 assay; type: functional, cell-based; details: PC-3, 72 h
[8] = Cytotoxicity against human BM-MSC cells assessed as cell viability at 100 uM incubated for 72 hrs by WST-8 assay; type: cell-based, BMMSC; details: read-out: Activity
[9] = system: A549; assay: Cytotoxicity against human A549 cells assessed as reduction in cell viability incubated for 72 hrs by WST-8 assay; type: functional, cell-based; details: A549, 72 h

## C=CC(c1ccc(OC)cc1)c1c(O)cc(O)c2c(=O)cc(-c3ccccc3)oc12 (stereo not drawn)
[1]
  Activity: Active
[2]
  Activity: Dose-dependent effect
[3]
  Activity: Active

## C=CC(c1ccc(OC)c(OC)c1)c1c(O)cc(O)c2c(=O)cc(-c3ccccc3)oc12 (stereo not drawn)
[3]
  Activity: Active

## C=CC(c1ccc(O)c(OC)c1)c1c(O)cc(O)c2c(=O)cc(-c3ccccc3)oc12 (stereo not drawn)
[4]
  Ki: 2.53 µM
[5]
  Ki: 2.48 µM
[6]
  Ki: 2.41 µM
[1]
  Activity: Active
[2]
  Activity: Dose-dependent effect
[7]
  IC50: 30.6 µM
[8]
  viability at 72 h, 100 µM: 57%
[9]
  IC50: 55.5 µM
[3]
  Activity: Active
